Results as given in patent US20230093099A1, “COMPOUNDS AND METHODS OF TREATING CANCERS” (CULLGEN (SHANGHAI), INC., priority 2019, published 2023).
pIC50: −log10 of the molar value.

system: RS4;11 cells; experiment: Cell viability assay (CellTiter-Glo) in RS4;11 cells; type: cell-based; conditions: Homo sapiens, 72 h; RS4;11 cells; cell viability, 3 days, CellTiter-Glo; read-out: IC50
In short: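 RS4;11 cells seeded at 5000 per well, exposed for 3 days to 8- or 12-point 3-fold serial dilutions. Viability read by CellTiter-Glo luminescence; IC50 fitted by nonlinear least-squares regression.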

`Cc1cnc(Nc2ccc(N3CCN(CC(=O)NCCOCCC(=O)N[C@H](C(=O)N4C[C@H](O)C[C@H]4C(=O)NCc4ccc(-c5scnc5C)cc4)C(C)(C)C)CC3)cc2)nc1Nc1cccc(S(=O)(=O)NC(C)(C)C)c1` [JA-218, (2S,4R)-1-((S)-2-(3-(2-(2-(4-(4-((4-((3-(N-(tert-butyl)sulfamoyl)phenyl)amino)-5-methylpyrimidin-2-yl)amino)phenyl)piperazin-1-yl)acetamido)ethoxy)propanamido)-3,3-dimethylbutanoyl)-4-hydroxy-N-(4-(4-methylthiazol-5-yl)benzyl)pyrrolidine-2-carboxamide] and `Cc1cnc(Nc2ccc(N3CCN(C(=O)CCOCCOCCC(=O)N[C@H](C(=O)N4C[C@H](O)C[C@H]4C(=O)NCc4ccc(-c5scnc5C)cc4)C(C)(C)C)CC3)cc2)nc1Nc1cccc(S(=O)(=O)NC(C)(C)C)c1` [JA-033, (2S,4R)-1-((S)-2-(3-(2-(3-(4-(4-((4-((3-(N-(tert-Butyl)sulfamoyl)phenyl)amino)-5-methylpyrimidin-2-yl)amino)phenyl)piperazin-1-yl)-3-oxopropoxy)ethoxy)propanamido)-3,3-dimethylbutanoyl)-4-hydroxy-N-(4-(4-methylthiazol-5-yl)benzyl)pyrrolidine-2-carboxamide] cannot be ordered by pIC50: under 5.00 for the first, under 5.00 for the second.

Going from `Cn1c(=O)n(C2CCC(=O)NC2=O)c2ccc(NCCCCCC(=O)N3CCN(c4ccc(Nc5nc6cccc(-c7ccc(S(C)(=O)=O)cc7)n6n5)cc4)CC3)cc21` (stereo not drawn) [JA-292, 3-(3-Methyl-5-((6-(4-(4-((5-(4-(methylsulfonyl)phenyl)-[1,2,4]triazolo[1,5-a]pyridin-2-yl)amino)phenyl)piperazin-1-yl)-6-oxohexyl)amino)-2-oxo-2,3-dihydro-1H-benzo[d]imidazol-1-yl)piperidine-2,6-dione] to `CS(=O)(=O)c1ccc(-c2cccc3nc(Nc4ccc(N5CCN(C(=O)CCCCCNc6ccc7c(c6)CN(C6CCC(=O)NC6=O)C7=O)CC5)cc4)nn23)cc1` (stereo not drawn) [JA-275, 3-(5-((6-(4-(4-((5-(4-(Methylsulfonyl)phenyl)-[1,2,4]triazolo[1,5-a]pyridin-2-yl)amino)phenyl)piperazin-1-yl)-6-oxohexyl)amino)-1-oxoisoindolin-2-yl)piperidine-2,6-dione], the pIC50 rises from under 6.30 to 6.75. The second is the more potent here.

Going from `Cc1ncsc1-c1ccc(CNC(=O)[C@@H]2C[C@@H](O)CN2C(=O)[C@@H](NC(=O)CCOCCC(=O)N2CCC(n3cc(-c4cnc5cccc(-c6cc(F)c(CN7CCOCC7)c(F)c6)c5n4)cn3)CC2)C(C)(C)C)cc1` [JA-058, (2S,4R)-1-[(2S)-2-[3-[3-[4-[4-[8-[3,5-Difluoro-4-(morpholinomethyl)phenyl]quinoxalin-2-yl]pyrazol-1-yl]-1-piperidyl]-3-oxo-propoxy]propanoylamino]-3,3-dimethyl-butanoyl]-4-hydroxy-N-[[4-(4-methylthiazol-5-yl)phenyl]methyl]pyrrolidine-2-carboxamide] to `Cc1ncsc1-c1ccc(CNC(=O)[C@@H]2C[C@@H](O)CN2C(=O)[C@@H](NC(=O)CCOCCOCCOCCOCCC(=O)N2CCC(n3cc(-c4cnc5cccc(-c6cc(F)c(CN7CCOCC7)c(F)c6)c5n4)cn3)CC2)C(C)(C)C)cc1` [JA-061, (2S,4R)-1-[(2S)-2-[3-[2-[2-[2-[3-[4-[4-[8-[3,5-Difluoro-4-(morpholinomethyl)phenyl]quinoxalin-2-yl]pyrazol-1-yl]-1-piperidyl]-3-oxo-propoxy]ethoxy]ethoxy]ethoxy]propanoylamino]-3,3-dimethyl-butanoyl]-4-hydroxy-N-[[4-(4-methylthiazol-5-yl)phenyl]methyl]pyrrolidine-2-carboxamide], the pIC50 falls from 5.60 to under 5.00. The first is the more potent here.

First: O=C1CCC(N2C(=O)c3ccc(CCCCCCC(=O)N4CCC(n5cc(-c6cnc7cccc(-c8cc(F)c(CN9CCOCC9)c(F)c8)c7n6)cn5)CC4)cc3C2=O)C(=O)N1 (stereo not drawn) [JA-257, 5-(7-(4-(4-(8-(3,5-Difluoro-4-(morpholinomethyl)phenyl)quinoxalin-2-yl)-1H-pyrazol-1-yl)piperidin-1-yl)-7-oxoheptyl)-2-(2,6-dioxopiperidin-3-yl)isoindoline-1,3-dione]
Second: O=C1CCC(N2C(=O)c3ccc(NCCOCCC(=O)N4CCC(n5cc(-c6cnc7cccc(-c8cc(F)c(CN9CCOCC9)c(F)c8)c7n6)cn5)CC4)cc3C2=O)C(=O)N1 (stereo not drawn) [JA-181, 5-((2-(3-(4-(4-(8-(3,5-Difluoro-4-(morpholinomethyl)phenyl)quinoxalin-2-yl)-1H-pyrazol-1-yl)piperidin-1-yl)-3-oxopropoxy)ethyl)amino)-2-(2,6-dioxopiperidin-3-yl)isoindoline-1,3-dione]
The pIC50 of the first is 1.09 log units higher: 6.86 for the first, 5.77 for the second.

Going from `Cc1ncsc1-c1ccc(CNC(=O)[C@@H]2C[C@@H](O)CN2C(=O)[C@@H](NC(=O)CCOCCOCCOCCOCCOCCC(=O)N2CCC(n3cc(-c4cnc5cccc(-c6cc(F)c(CN7CCOCC7)c(F)c6)c5n4)cn3)CC2)C(C)(C)C)cc1` [JA-044, (2S,4R)-1-[(2S)-2-[3-[2-[2-[2-[2-[3-[4-[4-[8-[3,5-Difluoro-4-(morpholinomethyl)phenyl]quinoxalin-2-yl]pyrazol-1-yl]-1-piperidyl]-3-oxo-propoxy]ethoxy]ethoxy]ethoxy]ethoxy]propanoylamino]-3,3-dimethyl-butanoyl]-4-hydroxy-N-[[4-(4-methylthiazol-5-yl)phenyl]methyl]pyrrolidine-2-carboxamide] to `O=C1CCC(N2C(=O)c3cccc(NCCOCCOCCOCCOCCOCCC(=O)N4CCC(n5cc(-c6cnc7cccc(-c8cc(F)c(CN9CCOCC9)c(F)c8)c7n6)cn5)CC4)c3C2=O)C(=O)N1` (stereo not drawn) [JA-043, 4-[2-[2-[2-[2-[2-[3-[4-[4-[8-[3,5-Difluoro-4-(morpholinomethyl)phenyl]quinoxalin-2-yl]pyrazol-1-yl]-1-piperidyl]-3-oxo-propoxy]ethoxy]ethoxy]ethoxy]ethoxy]ethylamino]-2-(2,6-dioxo-3-piperidyl)isoindoline-1,3-dione], the pIC50 rises from under 5.00 to 5.12.

First: CS(=O)(=O)c1ccc(-c2cccc3nc(Nc4ccc(N5CCN(CC(=O)NCCCCCCCNc6cccc7c6C(=O)N(C6CCC(=O)NC6=O)C7=O)CC5)cc4)nn23)cc1 (stereo not drawn) [JA-116, N-(7-((2-(2,6-Dioxopiperidin-3-yl)-1,3-dioxoisoindolin-4-yl)amino)heptyl)-2-(4-(4-((5-(4-(methylsulfonyl)phenyl)-[1,2,4]triazolo[1,5-a]pyridin-2-yl)amino)phenyl)piperazin-1-yl)acetamide]
Second: CS(=O)(=O)c1ccc(-c2cccc3nc(Nc4ccc(N5CCN(CCCCCCNc6ccc7c(c6)C(=O)N(C6CCC(=O)NC6=O)C7=O)CC5)cc4)nn23)cc1 (stereo not drawn) [JA-254, 2-(2,6-Dioxopiperidin-3-yl)-5-((6-(4-(4-((5-(4-(methylsulfonyl)phenyl)-[1,2,4]triazolo[1,5-a]pyridin-2-yl)amino)phenyl)piperazin-1-yl)hexyl)amino)isoindoline-1,3-dione]
The pIC50 of the first is lower: under 5.00 for the first, 5.94 for the second.

Compared with `CS(=O)(=O)c1ccc(-c2cccc3nc(Nc4ccc(N5CCN(C(=O)CCCCCCc6ccc7c(c6)C(=O)N(C6CCC(=O)NC6=O)C7=O)CC5)cc4)nn23)cc1` (stereo not drawn) [JA-249, 2-(2,6-Dioxopiperidin-3-yl)-5-(7-(4-(4-((5-(4-(methylsulfonyl)phenyl)-[1,2,4]triazolo[1,5-a]pyridin-2-yl)amino)phenyl)piperazin-1-yl)-7-oxoheptyl)isoindoline-1,3-dione], `CS(=O)(=O)c1ccc(-c2cccc3nc(Nc4ccc(N5CCN(C(=O)CCCCCCc6ccc7c(c6)C(=O)N(C6CCC(=O)NC6=O)C7)CC5)cc4)nn23)cc1` (stereo not drawn) [JA-268, 3-(6-(7-(4-(4-((5-(4-(methylsulfonyl)phenyl)-[1,2,4]triazolo[1,5-a]pyridin-2-yl)amino)phenyl)piperazin-1-yl)-7-oxoheptyl)-1-oxoisoindolin-2-yl)piperidine-2,6-dione] is 1.29 log units higher in pIC50: 6.98 for the first, 8.27 for the second.

`Cc1cnc(Nc2ccc(N3CCN(C(=O)CNc4cccc5c4C(=O)N(C4CCC(=O)NC4=O)C5=O)CC3)cc2)nc1Nc1cccc(S(=O)(=O)NC(C)(C)C)c1` (stereo not drawn) [JA-006, N-(tert-Butyl)-3-((2-((4-(4-((2-(2,6-dioxopiperidin-3-yl)-1,3-dioxoisoindolin-4-yl)glycyl)piperazin-1-yl)phenyl)amino)-5-methylpyrimidin-4-yl)amino)benzenesulfonamide] and `CS(=O)(=O)c1ccc(-c2cccc3nc(Nc4ccc(N5CCN(C(=O)CCCCCn6c(=O)n(C7CCC(=O)NC7=O)c7ccccc76)CC5)cc4)nn23)cc1` (stereo not drawn) [JA-280, 3-(3-(6-(4-(4-((5-(4-(Methylsulfonyl)phenyl)-[1,2,4]triazolo[1,5-a]pyridin-2-yl)amino)phenyl)piperazin-1-yl)-6-oxohexyl)-2-oxo-2,3-dihydro-1H-benzo[d]imidazol-1-yl)piperidine-2,6-dione] cannot be ordered by pIC50: under 5.00 for the first, under 6.30 for the second.

`Cc1ncsc1-c1ccc(CNC(=O)[C@@H]2C[C@@H](O)CN2C(=O)[C@@H](NC(=O)COCCOCCOCCOCCOCC(=O)N2CCN(c3ccc(Nc4nc5cccc(-c6ccc(S(C)(=O)=O)cc6)n5n4)cc3)CC2)C(C)(C)C)cc1` [JA-083, (2S,4R)-1-((S)-2-(tert-Butyl)-20-(4-(4-((5-(4-(methylsulfonyl)phenyl)-[1,2,4]triazolo[1,5-a]pyridin-2-yl)amino)phenyl)piperazin-1-yl)-4,20-dioxo-6,9,12,15,18-pentaoxa-3-azaicosanoyl)-4-hydroxy-N-(4-(4-methylthiazol-5-yl)benzyl)pyrrolidine-2-carboxamide] and `Cc1ncsc1-c1ccc(CNC(=O)[C@@H]2C[C@@H](O)CN2C(=O)[C@@H](NC(=O)CCOCCOCCOCCOCCNC(=O)CN2CCN(c3ccc(Nc4nc5cccc(-c6ccc(S(C)(=O)=O)cc6)n5n4)cc3)CC2)C(C)(C)C)cc1` [JA-133, (2S,4R)-1-((S)-20-(tert-Butyl)-1-(4-(4-((5-(4-(methylsulfonyl)phenyl)-[1,2,4]triazolo[1,5-a]pyridin-2-yl)amino)phenyl)piperazin-1-yl)-2,18-dioxo-6,9,12,15-tetraoxa-3,19-diazahenicosan-21-oyl)-4-hydroxy-N-(4-(4-methylthiazol-5-yl)benzyl)pyrrolidine-2-carboxamide] cannot be ordered by pIC50: under 5.00 for the first, under 5.00 for the second.
